Data published in PMC13538172, “Zonisamide nanodiamonds for brain targeting: A comprehensive study utilising in silico, in vitro, in vivo, and molecular investigation for successful nose-to-brain delivery for epilepsy management” (Drug Delivery and Translational Research, 2025).
“And” between values parts separate entries of the source, which are not always exact repeats. Equal entries are not always repeated.

What was measured:
[1] = Brain uptake, biodistribution and pharmacokinetics of 99mTc-radiolabelled ZNS in mice; type: in vivo, male Swiss albino mice; settings: for Cmax (%ID/g), blood / Cmax (%ID/g), brain: n = 6
Description: Then, 100 μL of freshly eluted ^99mTc-pertechnetate; 99mTcO4- (200 MBq) was added to the above mixture, and the reaction mixture was vigorously shaken for 15 minutes. Radiochromatographic analysis was developed using the ascending paper chromatography (PC) technique to monitor the radiochemical purity of the ^99mTc-labelled compound using two distinct mobile phases; acetone was used to detect free pertechnetate, which migrated to Rf = 1, while the other component remained at Rf = 0 and a second mobile phase, comprising NH4OH, C2H5OH, and H2O (1:2:5), was used to determine the reduced hydrolyzed (R-H) 99mTc-colloid, which remained at Rf = 0, whereas ^99mTc-labelled compound and free pertechnetate migrated to Rf = 1 [7, 47]. Two drops of the reaction product and free 99mTcO4 were placed on two strips of Whatman PC on the origin line, 2 cm far from the base, to be developed by developing solvents. The experiments were conducted in triplicate to ensure the reproducibility and reliability of the results. As the developing process was terminated, the strip was dried, trimmed into 1 cm size pieces, and counted using the sodium iodide (NaI) γ-ray scintillation counter (A good-type NaI scintillation γ-Counter model scalar rate meter SR7 (Nuclear Enterprises Ltd., USA). The radiochemical yield percent of ^99mTc–ZNS was calculated using Eq. (3)3 %Radiochemicalyield=100-%Free99mTc-%colloid99mTc
The experiment protocol was approved by the University of October for Modern Sciences and Arts (MSA) ethical committee (Pt2/Ec2/2022PD), where the principles of the Declaration of Helsinki were followed. The mice were maintained in cabins of a size that suits groups of five at room temperature with a 12 h light/dark cycle and accessibility to food and water ad libitum. The mice were divided into four groups. Mice in group 1 served as a control and received no treatments. Mice in group 2 were given ZNS orally using an oral gavage (100 μL). Mice in group 3 were injected intranasally with ^99mTc–ND-ZNS complex in each nostril (100 μL) with the help of a micropipette attached with a low-density polyethene tube having 0.1 mm internal diameter at the delivery site. Mice in group 4 were injected intranasally free ^99mTc–-ZNS similarly. The mice were held from the back in a slanted position during nasal administration of the formulations. Next, mice were anesthetized by chloroform at 5, 15, 30, 60, 120 min post-injection (n=6 mice/time point). Samples of fresh blood and different organs were collected, washed twice using saline solution, made free from adhering tissue/fluid, and weighed. The radioactivity in each tissue/organ was measured using a shielded well-type gamma scintillation counter. The radiopharmaceutical uptake per gram in each tissue/organ was calculated as a fraction of the administered dose. Percent injected dose per gram organ and body fluid (mean %ID per gram organ and body fluid ± SD) in a population of six mice were calculated, and the significance level was set at […].
Drug concentrations in plasma and brain were investigated based on the measured radioactivity as previously discussed. Blood samples were collected at 5, 15, 30, 60, and 120 min post-injection (n=6 mice/time interval). Plasma and brain pharmacokinetic parameters were calculated by non-compartmental analysis using the Microsoft Excel Pharmacokinetics add-on. The rate of drug absorption was estimated through maximum plasma/brain concentration (Cmax), time for maximum plasma/brain concentration (Tmax), the extent of drug absorption via the area under the curve from zero to time (AUC0-t), and the area under the curve from zero to infinity (AUC 0-∞). The data in the form of mean values (± SD) of three determinations were statistically analyzed by applying one-way ANOVA using Minitab 17 software. Data was expressed as mean±S.D and analyzed by ANOVA followed by Tukey's test for multiple comparisons. Differences were considered significant when p was less than 0.05. […]

[2] = tested on: neurofilament light polypeptide (NEFL); test: Serum NEFL by ELISA in TLE rats; type: in vivo; settings: compared to the TLE control rats; intranasal, 7 days
Description: Temporal lobe epilepsy (TLE) was induced in rats using the pilocarpine model according to the method of Arshad et al.. Prior to the experiment, rats were housed in plastic cages at October University for Modern Science and Arts under controlled environmental conditions (temperatures of 25°±3°C and 50% humidity) with free access to water and softened standard pellet chow. The rats were injected with pilocarpine (300 mg/kg; i.p.) to induce status epilepticus (SE). Atropine (1 mg/kg; i.p.) was injected 30 minutes before pilocarpine injection to antagonize the peripheral muscarinic activity. SE was defined using the modified Racine scale by observing seizure severity categorized as stages 4 and 5. […] The SE seizures were left to last for 3 hours to induce hippocampus damage, after which diazepam (10 mg/kg; i.p.) was injected to attenuate the seizures. Lubricant ophthalmic gel was applied with a cotton swab to each eye to prevent the corneas from drying out during the seizures. The rats were hydrated with sterile Ringer's lactate injections (1 mL, i.p.) for 3 days post-SE induction. […]
The serum levels of neuron-specific enolase (NSE), matrix metallopeptidase-9 (MMP-9), neurofilament light polypeptide (NEFL), and brain-derived neurotrophic factor (BDNF) were measured by ELISA technique using the following standard kits CAT no. […]

## NS(=O)(=O)Cc1noc2ccccc12 [ZNS, Zonisamide]
[1]; 5-120 min, Fig. 6, result in words
  tissue distribution of ZNS (brain, liver, kidney, stomach, lungs): minimal distribution in the brain
[1]; intranasal
  Brain/Blood Ratio (AUC Brain/AUC Blood): 0.24
  LogBB at 15 min: −0.55±0.06
  LogBB at 120 min: −0.477
  AUC(0-120min), blood: 125.25 ± 21.3 %ID/g.min
  Tmax (min), blood: 15 min
  Cmax (%ID/g), blood: 1.8 ± 0.7 %ID/g
  AUC(0-120min), brain: 31 ± 9.6 %ID/g.min
  Tmax (min), brain: 15 min
  Cmax (%ID/g), brain: 0.5 ± 0.2 %ID/g
[1]; intranasal, listed as free ZNS
  LogBB at 15 min: −0.556
[1]; oral
  LogBB at 15 min: −0.865
  LogBB at 120 min: −1.301
  AUC(0-120min), blood: 77.6 ± 15.3 %ID/g.min
  Tmax (min), blood: 30 min
  Cmax (%ID/g), blood: 1.4 ± 0.07 %ID/g
  AUC(0-120min), brain: 7.1 ± 3.1 %ID/g.min
  Tmax (min), brain: 15 min
  Cmax (%ID/g), brain: 0.2 ± 0.02 %ID/g
[1]; oral, listed as free ZNS
  Brain/Blood Ratio (AUC Brain/AUC Blood): 0.09 and 0.091
[2]
  decrease in serum level of NEFL: 44.6%
